Source: ChEMBL document CHEMBL1148219, “Cytotoxic sesquiterpene lactones from Eupatorium lindleyanum” (J Nat Prod, 2004)
Converted amounts (≈) assume the structure as drawn. The source made the active and inactive calls. The calls are words filed in the database; no cut-off is given here.

Experiments:
P388 = assay: Cytotoxicity against mouse P388 cells after 24 hrs; assay type: functional, cell-based; details: for IC50: P388, 24 h
A549 = assay: Cytotoxicity against human A549 cells after 24 hrs; assay type: functional, cell-based; details: for IC50: A549, 24 h

SMILES	Activity (P388)	Activity (A549)	IC50 (A549)	IC50 (P388)
C=C1C(=O)O[C@H]2[C@H]1[C@H](OC(=O)/C(C)=C/CO)C[C@](O)(CO)[C@@H]1[C@H](O)[C@H]3O[C@@]3(C)[C@H]21	inactive	inactive	–	–
C=C1C(=O)O[C@@H]2[C@H]3C(C)=C[C@@H](O)[C@H]3[C@@](O)(CCl)C[C@@H](OC(=O)/C(C)=C/C)[C@@H]12 [EUPALINILIDE E]	inactive	–	0.028 µg/mL (≈ 0.0706 µM)	–
C=C1C(=O)O[C@@H]2[C@H]3C(C)=C[C@@H](O)[C@H]3[C@@](O)(CO)C[C@@H](OC(=O)/C(C)=C/CO)[C@@H]12	inactive	inactive	–	–
COC(=O)C1=CC[C@@]23CC[C@@H]([C@@](C)(/C=C/C=C(\C)C(=O)O)OC2=O)[C@@]3(OC(C)=O)CC1 [PSEUDOLARIC ACID B]	–	–	0.86 µg/mL (≈ 1.99 µM)	–
C=C1C(=O)O[C@H]2[C@H]1[C@H](OC(=O)/C(C)=C/CO)CC(=C)[C@@H]1C=C[C@@](C)(O)[C@H]21 [EUPALINILIDE B]	–	–	0.75 µg/mL (≈ 2.08 µM)	0.21 µg/mL (≈ 0.583 µM)
C=C1C(=O)O[C@@H]2[C@H]3C(C)=C[C@H]4OC[C@@](O)(C[C@@H](OC(=O)/C(C)=C/CO)[C@@H]12)[C@@H]34 [EUPALINILIDE C]	–	–	11 µg/mL (≈ 29.2 µM)	1.2 µg/mL (≈ 3.19 µM)
